From patent US9365522B2, “Pyrazole amide derivative” (AMGEN INC., priority 2015, dated 2016)

Molecular target: T1, human RORγ-LBD (Homo sapiens, UniProt P51449)
T1 construct: made in house; host or cells: E. coli (BL-21)
T1 sequence (P51449 262-518): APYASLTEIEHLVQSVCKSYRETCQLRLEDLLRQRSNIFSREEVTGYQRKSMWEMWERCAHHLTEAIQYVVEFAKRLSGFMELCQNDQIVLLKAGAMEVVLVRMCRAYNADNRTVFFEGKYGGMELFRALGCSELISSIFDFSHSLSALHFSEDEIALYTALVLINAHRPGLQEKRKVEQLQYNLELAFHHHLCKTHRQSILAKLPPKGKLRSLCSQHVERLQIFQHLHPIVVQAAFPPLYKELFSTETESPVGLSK
Assay: ROR gamma coactivator peptide recruitment Alphascreen assay (RORγ-LBD binding to GRIP1 coactivator peptide)
Type: biochemical
Details: 5 nM human RORγ-LBD, 30 nM 7-β-hydroxycholesterol, 50 nM biotinylated GRIP1 coactivator peptide, overnight incubation at room temperature; read-out: result (pIC50, RORγ coactivator peptide recruitment Alphascreen assay) (converted)
In short: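 His/Flag-tagged human RORγ-LBD (aa 262-518, E. coli-expressed, 5 nM) with agonist 7-β-hydroxycholesterol (30 nM) and biotinylated GRIP1 LXXLL peptide (50 nM) in HEPES pH 7.4 buffer, 2.5% DMSO. Compound 1-in-2 dilutions; Alphascreen bead signal read after overnight incubation at room temperature; pIC50 calculated.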

| Compound | IC50 |
| --- | --- |
| C[C@]1(C(=O)O)CC[C@H](n2ncc(C(=O)N(CC(=O)c3c(Cl)cc(F)cc3Cl)CC3CCCC3)c2C(F)(F)F)CC1 [Example 698, trans-4-(4-((cyclopentylmethyl)(2-(2,6-dichloro-4-fluorophenyl)-2-oxoethyl)carbamoyl)-5-(trifluoromethyl)-1H-pyrazol-1-yl)-1-methylcyclohexanecarboxylic acid] | 2.09 nM |
| CC(C)(C)[C@H]1C[C@@H](N(CC(=O)c2c(Cl)cncc2Cl)C(=O)c2cnn([C@H]3CC[C@](C)(C(=O)O)CC3)c2C(F)(F)F)C1 [Example 699, trans-4-(4-((2-(3,5-dichloro-4-pyridinyl)-2-oxoethyl)(cis-3-(2-methyl-2-propanyl)cyclobutyl)carbamoyl)-5-(trifluoromethyl)-1H-pyrazol-1-yl)-1-methylcyclohexanecarboxylic acid] | 39.8 nM |
| CC(C)CCN(CC(=O)c1c(Cl)cncc1Cl)C(=O)c1cnn([C@H]2CC[C@](C)(C(=O)O)CC2)c1C(F)(F)F [Example 700, trans-4-(4-((2-(3,5-dichloro-4-pyridinyl)-2-oxoethyl)(3-methylbutyl)carbamoyl)-5-(trifluoromethyl)-1H-pyrazol-1-yl)-1-methylcyclohexanecarboxylic acid] | 13.2 nM |
| Cc1cc(C)c(C(=O)CN(Cc2cc(F)cc(F)c2)C(=O)c2cnn([C@H]3CC[C@](C)(C(=O)O)CC3)c2C(F)(F)F)c(Cl)n1 [Example 702, trans-4-(4-((2-(2-chloro-4,6-dimethyl-3-pyridinyl)-2-oxoethyl)(3,5-difluorobenzyl)carbamoyl)-5-(trifluoromethyl)-1H-pyrazol-1-yl)-1-methylcyclohexanecarboxylic acid] | 7.94 nM |
| Cc1cc(Cl)c(C(=O)CN(CC2(F)CC2)C(=O)c2cnn([C@H]3CC[C@](C)(C(=O)O)CC3)c2C(F)(F)F)c(Cl)n1 [Example 703, trans-4-(4-((2-(2,4-dichloro-6-methyl-3-pyridinyl)-2-oxoethyl)((1-fluorocyclopropyl)methyl)carbamoyl)-5-(trifluoromethyl)-1H-pyrazol-1-yl)-1-methylcyclohexanecarboxylic acid] | 70.8 nM |
| Cc1cc(Cl)c(C(=O)CN(CCC(C)C)C(=O)c2cnn([C@H]3CC[C@](C)(C(=O)O)CC3)c2C(F)(F)F)c(Cl)c1 [Example 704, trans-4-(4-((2-(2,6-dichloro-4-methylphenyl)-2-oxoethyl)(3-methylbutyl)carbamoyl)-5-(trifluoromethyl)-1H-pyrazol-1-yl)-1-methylcyclohexanecarboxylic acid] | 2.45 nM |
| C[C@H]1CC[C@H](CN(CC(=O)c2c(Cl)cncc2Cl)C(=O)c2cnn([C@H]3CC[C@](C)(C(=O)O)CC3)c2C(F)(F)F)O1 [Example 705, trans-4-(4-((2-(3,5-dichloro-4-pyridinyl)-2-oxoethyl)(((2R,5S)-5-methyltetrahydro-2-furanyl)methyl)carbamoyl)-5-(trifluoromethyl)-1H-pyrazol-1-yl)-1-methylcyclohexanecarboxylic acid] | 58.9 nM |
| C[C@@H]1CC[C@@H](CN(CC(=O)c2c(Cl)cncc2Cl)C(=O)c2cnn([C@H]3CC[C@](C)(C(=O)O)CC3)c2C(F)(F)F)O1 [Example 706, trans-4-(4-((2-(3,5-dichloro-4-pyridinyl)-2-oxoethyl)(((2S,5R)-5-methyltetrahydro-2-furanyl)methyl)carbamoyl)-5-(trifluoromethyl)-1H-pyrazol-1-yl)-1-methylcyclohexanecarboxylic acid] | 32.4 nM |
| Cc1cc(Cl)c(C(=O)CN(CC2CC2)C(=O)c2cnn([C@H]3CC[C@](C)(C(=O)O)CC3)c2C(F)(F)F)c(Cl)c1 [Example 707, trans-4-(4-((cyclopropylmethyl)(2-(2,6-dichloro-4-methylphenyl)-2-oxoethyl)carbamoyl)-5-(trifluoromethyl)-1H-pyrazol-1-yl)-1-methylcyclohexanecarboxylic acid] | 6.17 nM |
| Cc1cc(Cl)c(C(=O)CN(CC2(C)CCCC2)C(=O)c2cnn([C@H]3CC[C@](C)(C(=O)O)CC3)c2C(F)(F)F)c(Cl)c1 [Example 709, trans-4-(4-((2-(2,6-dichloro-4-methylphenyl)-2-oxoethyl)((1-methylcyclopentyl)methyl)carbamoyl)-5-(trifluoromethyl)-1H-pyrazol-1-yl)-1-methylcyclohexanecarboxylic acid] | 0.891 nM |
| C[C@]1(C(=O)O)CC[C@H](n2ncc(C(=O)N(CC(=O)c3c(Cl)cncc3Cl)CC3CC3)c2C(F)(F)F)CC1 [Example 710, trans-4-(4-((cyclopropylmethyl) (2-(3,5-dichloro-4-pyridinyl)-2-oxoethyl)carbamoyl)-5-(trifluoromethyl)-1H-pyrazol-1-yl)-1-methylcyclohexanecarboxylic acid] | 27.5 nM |
| CC1(CN(CC(=O)c2c(Cl)cncc2Cl)C(=O)c2cnn([C@H]3CC[C@](C)(C(=O)O)CC3)c2C(F)(F)F)CCCC1 [Example 711, trans-4-(4-((2-(3,5-dichloro-4-pyridinyl)-2-oxoethyl)((1-methylcyclopentyl)methyl)carbamoyl)-5-(trifluoromethyl)-1H-pyrazol-1-yl)-1-methylcyclohexanecarboxylic acid] | 2.04 nM |
| C[C@]1(C(=O)O)CC[C@H](n2ncc(C(=O)N(CC(=O)c3c(Cl)cncc3Cl)CC3(F)CC4(CC4)C3)c2C(F)(F)F)CC1 [Example 712, trans-4-(4-((2-(3,5-dichloro-4-pyridinyl)-2-oxoethyl)((5-fluorospiro[2.3]hex-5-yl)methyl)carbamoyl)-5-(trifluoromethyl)-1H-pyrazol-1-yl)-1-methylcyclohexanecarboxylic acid] | 12.9 nM |
| C[C@]1(C(=O)O)CC[C@H](n2ncc(C(=O)N(CC(=O)c3c(Cl)cccc3Cl)CC3(F)CC4(CC4)C3)c2C(F)(F)F)CC1 [Example 713, (1r,4r)-4-(4-((2-(2,6-dichlorophenyl)-2-oxoethyl)((5-fluorospiro[2.3]hexan-5-yl)methyl)carbamoyl)-5-(trifluoromethyl)-1H-pyrazol-1-yl)-1-methylcyclohexanecarboxylic acid] | 4.07 nM |
| Cc1cc(Cl)c(C(=O)CN(C(=O)c2cnn([C@H]3CC[C@](C)(C(=O)O)CC3)c2C(F)(F)F)[C@H]2C[C@@H]3[C@H](C2)C3(C)C)c(Cl)n1 [Example 714, trans-4-(4-((2-(2,4-dichloro-6-methyl-3-pyridinyl)-2-oxoethyl)((1R,3r,5S)-6,6-dimethylbicyclo[3.1.0]hex-3-yl)carbamoyl)-5-(trifluoromethyl)-1H-pyrazol-1-yl)-1-methylcyclohexanecarboxylic acid] | 3.55 nM |

Further lines, results first:

| IC50 | Compound |
| --- | --- |
| 10.5 nM | Cc1ncc(Cl)c(C(=O)CN(CC(C)(C)C)C(=O)c2cnn([C@H]3CC[C@](C)(C(=O)O)CC3)c2C(F)(F)F)c1Cl [Example 715, trans-4-(4-((2-(3,5-dichloro-2-methyl-4-pyridinyl)-2-oxoethyl)(2,2-dimethylpropyl)carbamoyl)-5-(trifluoromethyl)-1H-pyrazol-1-yl)-1-methylcyclohexanecarboxylic acid] |
| 2.69 nM | CC1(CN(CC(=O)c2c(Cl)cc(F)cc2Cl)C(=O)c2cnn([C@H]3CC[C@@](C)(C(=O)O)CC3)c2C(F)(F)F)CC1 [Example 716, trans-4-(4-((2-(2,6-dichloro-4-fluorophenyl)-2-oxoethyl)((1-methylcyclopropyl)methyl)carbamoyl)-5-(trifluoromethyl)-1H-pyrazol-1-yl)-1-methylcyclohexanecarboxylic acid] |
| 2.09 nM | Cc1cc(Cl)c(C(=O)CN(CC2(C)CC2)C(=O)c2cnn([C@H]3CC[C@@](C)(C(=O)O)CC3)c2C(F)(F)F)c(Cl)c1 [Example 717] |
| 1.74 nM | Cc1cc(Cl)c(C(=O)CN(CC2CCCC2)C(=O)c2cnn([C@H]3CC[C@@](C)(C(=O)O)CC3)c2C(F)(F)F)c(Cl)c1 [Example 718, trans-4-(4-((cyclopentylmethyl)(2-(2,6-dichloro-4-methylphenyl)-2-oxoethyl)carbamoyl)-5-(trifluoromethyl)-1H-pyrazol-1-yl)-1-methylcyclohexanecarboxylic acid] |
| 6.03 nM | CC(C)(C)CN(CC(=O)c1c(Cl)cncc1Cl)C(=O)c1cnn([C@H]2CC[C@H](CC(=O)O)CC2)c1C(F)(F)F [Example 719, (trans-4-(4-((2-(3,5-dichloro-4-pyridinyl)-2-oxoethyl)(2,2-dimethylpropyl)carbamoyl)-5-(trifluoromethyl)-1H-pyrazol-1-yl)cyclohexyl)acetic acid] |
| 74.1 nM | CC(C)(C)CN(CC(=O)c1c(Cl)cncc1Cl)C(=O)c1cnn([C@H]2CC[C@@H](CC(=O)O)CC2)c1C(F)(F)F [Example 720, (cis-4-(4-((2-(3,5-dichloro-4-pyridinyl)-2-oxoethyl)(2,2-dimethylpropyl)carbamoyl)-5-(trifluoromethyl)-1H-pyrazol-1-yl)cyclohexyl)acetic acid] |
| 0.832 nM | Cc1cc(Cl)c(C(=O)CN(C(=O)c2cnn([C@H]3CC[C@](C)(C(=O)O)CC3)c2C(F)(F)F)[C@H]2CCC23CCC3)c(Cl)c1 [Example 721, trans-4-(4-((2-(2,6-dichloro-4-methylphenyl)-2-oxoethyl)((1S)-spiro[3.3]hept-1-yl)carbamoyl)-5-(trifluoromethyl)-1H-pyrazol-1-yl)-1-methylcyclohexanecarboxylic acid] |
